Activity calls are given as the source filed them. No rule for the calls is given here.
These molecules were tested against Peptidyl-prolyl cis-trans isomerase FKBP1A (Homo sapiens) (UniProt P62942) (assay: FKBP12 binders, biophysical, NMR detection (AID 608)). Settings: NMR binding, purified FKBP12.
Sequence of Peptidyl-prolyl cis-trans isomerase FKBP1A (Homo sapiens) (P62942 whole entry, looked up): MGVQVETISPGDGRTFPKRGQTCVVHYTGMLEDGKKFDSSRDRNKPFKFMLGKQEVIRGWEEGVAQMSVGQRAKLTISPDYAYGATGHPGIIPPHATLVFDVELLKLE

| SMILES | Kd |
| --- | --- |
| C=CCSc1[nH]c(=O)cc(C)c1C(N)=O | > 4 mM (inactive) |
| O=C(Nc1nccs1)c1cccnc1 | > 4 mM (inactive) |
| NC(=O)CC[C@H](N)C(=O)O | > 4 mM (inactive) |
| Cc1nc(-c2cccc(-c3noc(C)n3)c2)no1 | > 4 mM (inactive) |
| CC(CCC(=O)O)[C@H]1CCC2C3CC[C@@H]4C[C@H](O)CC[C@]4(C)C3C[C@H](O)[C@@]21C (some centres not stated) | > 4 mM (inactive) |
| Cc1ncoc1C(=O)Nc1ccccc1C(N)=O | > 4 mM (inactive) |
| O=C1CCCN1c1ccc(S(=O)O)cc1 | > 4 mM (inactive) |
| Cc1[nH]c2ccccc2c1C=Nn1cncn1 | > 4 mM (inactive) |
| CC(=O)Oc1c(C)cc(O)c2ccccc12 | > 4 mM (inactive) |
| O=C1CC(=O)N2N=C(c3ccccc3)SC2=N1 | > 4 mM (inactive) |
| COC(=O)c1c(C)cc(OC(=O)c2c(C)cc(O)c(C=O)c2O)c(C)c1O | > 4 mM (inactive) |
| Cc1nnsc1C(=O)Nc1ccccn1 | > 4 mM (inactive) |
| O=C1C[C@@H](c2ccccc2)Oc2cc(O)cc(O)c21 | > 4 mM (inactive) |
| CC(=O)c1c(C)n(O)c2ccc3nonc3c12 | > 4 mM (inactive) |
| Nc1ccc(C(=O)NCC2CCCO2)cc1 (configuration not stated) | > 4 mM (inactive) |
| Oc1ccc2c(c1)OCO2 | > 4 mM (inactive) |
| O=C(Nn1c(=S)[nH]c2ccccc2c1=O)c1ccncc1 | > 4 mM (inactive) |
| O=C(O)c1cnc2n(c1=O)CCS2 | > 4 mM (inactive) |
| O=C(O)C1CCN(c2ccc(C(F)(F)F)cn2)CC1 | > 4 mM (inactive) |
| CNC(=O)c1cc2cccc(OC)c2oc1=O | > 4 mM (inactive) |
| OCCCc1nc2ccccc2[nH]1 | > 4 mM (inactive) |
| O=c1sc2ccccc2n1CN1CCOCC1 | > 4 mM (inactive) |

| SMILES | Kd |
| --- | --- |
| Cc1cc(=O)oc2cc3c(cc12)OCCO3 | > 4 mM (inactive) |
| CC(=O)c1cccc(NC(=O)N2CCc3ccccc3C2)c1 | > 4 mM (inactive) |
| CC(C)CCCC(C)C1CCC2C3=CC[C@H]4C[C@@H](O)CC[C@]4(C)C3CC[C@@]21C (some centres not stated) | > 4 mM (inactive) |
| CCCNC(=O)CSc1ncccc1C(=O)O | > 4 mM (inactive) |
| O=C1CSC(=Nc2ccc(Cl)cc2)N1 | > 4 mM (inactive) |
| COC(=O)Nc1nc2c(C)cccc2s1 | > 4 mM (inactive) |
| CC(=O)Nc1nnc(-c2ccco2)o1 | > 4 mM (inactive) |
| NC(=O)N1CCc2ccccc21 | > 4 mM (inactive) |
| Cc1cc(C(=O)NCc2cccnc2)no1 | > 4 mM (inactive) |
| CC1(C)CC23C(=O)CCC(O)C2(C)CCC13 (configuration not stated) | > 4 mM (inactive) |
| COC(=O)CC1=Nc2ccccc2NC(=O)C1 | > 4 mM (inactive) |
| COc1ccccc1NC(=O)/C=N/O | > 4 mM (inactive) |
| O=C(O)c1cncc(-c2cccs2)c1 | > 4 mM (inactive) |
| O=C(Oc1ccc2c(c1)CCC2)N1CCOCC1 | > 4 mM (inactive) |
| CC(=O)Nc1ccncc1NC(C)=O | > 4 mM (inactive) |
| Nc1ccc(S(=O)(=O)Nc2nccs2)cc1 | > 4 mM (inactive) |
| COc1cccc(/C=C2/SC(N)=NC2=O)c1 | > 4 mM (inactive) |
| CC(=O)OCc1cc(=O)n(C)c(=O)n1C | > 4 mM (inactive) |
| Cc1nn(C)c(N2CCOCC2)c1N | > 4 mM (inactive) |
| CC(=O)c1cnc2nc(C(F)(F)F)nn2c1C | > 4 mM (inactive) |
| CC(O)(C(=O)O)c1ccccc1 (configuration not stated) | > 4 mM (inactive) |
| Nc1ccc(NC(=O)c2ccco2)c(Cl)c1 | > 4 mM (inactive) |

| SMILES | Kd |
| --- | --- |
| Nc1nc(-c2ccc(F)c(F)c2)cs1 | > 4 mM (inactive) |
| O=C(O)/C=C/c1ccc(O)c(O)c1 | > 4 mM (inactive) |
| O=C(Nc1ccc(OCC(=O)N2CCOCC2)cc1)c1ccccc1Cl | > 4 mM (inactive) |
| COC(=O)C1COCCN1C(=O)CS(=O)(=O)c1ccc(C(C)C)cc1 (configuration not stated) | inactive |
| CC(=O)c1ccc2c(c1)OCCO2 | > 4 mM (inactive) |
| O=C(Nc1ccccc1Cl)c1cnccn1 | > 4 mM (inactive) |
| CC1Oc2ccccc2OC1C(=O)N1CCOCC1 (configuration not stated) | > 4 mM (inactive) |
| Nc1cc(F)cc(F)c1 | > 4 mM (inactive) |
| C=C1C([C@]2(C)C(CC(=O)OC)[C@@](C)(COC(C)=O)OC(=O)C[C@@H]2OC(C)=O)[C@@H](OC=O)[C@H](OC(=O)C(OC(C)=O)C(C)CC)[C@@]2(C)[C@H](c3ccoc3)CC(=O)C12O (some centres not stated) | > 4 mM (inactive) |
| O=C(COc1cc(Cl)c(Cl)cc1Cl)N1CCOCC1 | inactive |
| CCC1=Nc2ccccc2-c2nnc(SC)nc2O1 | > 4 mM (inactive) |
| COC(=O)Cn1c2ccccc2c2nc(C)sc21 | > 4 mM (inactive) |
| NC(=O)C1CCN(C(=S)c2cccs2)CC1 | > 4 mM (inactive) |
| COc1cccc(-c2csc(NC(C)=O)n2)c1 | > 4 mM (inactive) |
| CC12CN([N+](=O)[O-])C3(C(N)=O)CC1CCC23C (configuration not stated) | > 4 mM (inactive) |
| O=C(c1ccc(F)cc1)C1CCNCC1 | > 4 mM (inactive) |
| C=C[C@H]1CN2CC[C@H]1C[C@@H]2[C@H](O)c1ccnc2ccccc12 | > 4 mM (inactive) |
| O=C(O)C1CCN(C(=O)c2cccs2)CC1 | > 4 mM (inactive) |
| Cc1ccc(C)n1NC(=O)c1ccco1 | > 4 mM (inactive) |
| Nc1ccc(N2CCOCC2)cc1 | > 4 mM (inactive) |
| CCN1CCc2c(sc(N)c2C(N)=O)C1 | > 4 mM (inactive) |
| Cc1cc(=O)n(CCc2ccccc2)c(O)c1C#N | > 4 mM (inactive) |

| SMILES | Kd |
| --- | --- |
| NCc1ccc(-c2cccs2)cc1 | > 4 mM (inactive) |
| NC1Cc2ccccc2C1 | > 4 mM (inactive) |
| COc1cnn(Cc2ccccc2)c(=O)c1Cl | > 4 mM (inactive) |
| OC1COCc2nc3ccccc3n2C1 (configuration not stated) | > 4 mM (inactive) |
| CN1CCN(C(=O)c2cc(-c3ccccc3)on2)CC1 | > 4 mM (inactive) |
| Cc1c(-c2ccccc2)[n+](=O)c(-c2ccco2)c(C)n1[O-] | > 4 mM (inactive) |
| CC(=O)Oc1ccc(-c2cc(=O)c3c(OC(C)=O)cc(OC(C)=O)cc3o2)cc1 | > 4 mM (inactive) |
| O=C(O)Cn1cc(C(=O)C2CC2)c2ccccc21 | > 4 mM (inactive) |
| CC(=O)Nc1ccc(-c2ccc3nncn3n2)cc1 | > 4 mM (inactive) |
| O=C1NCCCC1C(=O)N1CCCCC1 (configuration not stated) | > 4 mM (inactive) |
| COc1cccc(Oc2ccc(N)cn2)c1 | > 4 mM (inactive) |
| COC1C(O)C(O[C@H]2CC[C@]3(C=O)C4C(CC[C@]3(O)C2)[C@@]2(O)CC[C@H](C3=CC(=O)OC3)[C@@]2(C)C[C@H]4OC(C)=O)OC(C)C1OC(C)=O (some centres not stated) | > 4 mM (inactive) |
| CC(=O)N1CCC(NC2CCCCCC2)CC1 | > 4 mM (inactive) |
| Cc1ccc(CNc2ccc(O)cc2)cc1 | > 4 mM (inactive) |
| O=C1CSC(=Nc2cc(Cl)ccc2Cl)N1 | > 4 mM (inactive) |
| COc1ccc2c(c1)O[C@@H]1COc3cc(OC)c(OC)cc3[C@@H]1C2=O | > 4 mM (inactive) |
| CC1(C)Oc2ccc(N)cc2O1 | > 4 mM (inactive) |
| O=c1c(-c2ccco2)[n+]([O-])c2ccccc2n1O | > 4 mM (inactive) |
| O=C(O)c1cccc(CSc2ncccn2)c1 | > 4 mM (inactive) |
| Cc1cc(=O)oc2c1c(C)nn2CN1CCN(C)CC1 | > 4 mM (inactive) |
| O=[n+]1cc(C2=CC=CCC2)n([O-])c2c1CCCCC2 | > 4 mM (inactive) |
